The results in this text go back to publication PMC7497630, “Coibamide A Targets Sec61 to Prevent Biogenesis of Secretory and Membrane Proteins” (ACS Chemical Biology, 2020).

For experiment [1], the system named is MDA-MB-231 breast cancer cells. Briefly: Cell viability, MTS end-point assay. The class given is cell-based, human. Particulars: synthetic CbA, 72 h, vehicle 0.1% DMSO. The method, then:
(§1) Figure 1 Cytotoxicity of synthetic and Pra-containing coibamides. (A) Structure of CbA. (B) Human MDA-MB-231 breast cancer cells were treated with increasing concentrations of synthetic CbA or vehicle (0.1% DMSO) and cell viability assessed at 72 h by an MTS end-point assay. (C) Structure of Photo-CbA. (D) Human HCT116 cells were treated with increasing concentrations of synthetic or photo-CbA in 0.1% DMSO, and cell viability assessed at 72 h by Alamar Blue assay. TEXT PRINTED IN THE PICTURE: (B) CbA: MDA-MB-231 cell line: IC50(nM): 1.6 | (D) CbA: HCT 116 cell line: IC50(nM): 29.2 | (D) Photo-CbA: HCT 116 cell line: IC50(nM): 6.5
A431, HEK293T, and HEK293FRT cells were cultured in DMEM supplemented with 10% FBS. HCT-116 cells were cultured in McCoy’s 5A media supplemented with 10% FBS. U87-MG cells were cultured in Minimum Essential Media (MEM) with 10% FBS, L-glutamine (2 mM), and 1% penicillin and streptomycin. MDA-MB-231 cells were cultured in MEM with Earl’s salts plus 1% penicillin/streptomycin and 10% FBS. All cell lines were incubated at 37 °C under 5% CO2. The activity of synthetic coibamide and photoaffinity analogues was tested in MDA-MB-231 and A549 cells after 72 h by MTS assay. […] Viability was estimated by the addition of Alamar Blue (Life Technologies) and measuring fluorescence after a further 4 h. […]
For orientation: Tetrazolium dyes change colour on reduction, which living cells bring about.

A further experiment deals with HCT116 cells. Briefly: Cell viability, Alamar Blue assay. The class given is cell-based, human. The protocol: as §1
(§2) Figure 5 CbA mode of inhibition is specific compared to known Sec61 inhibitors. (A) Cell viability was measured by Alamar Blue assay (mean ± SD, n = 4, all cell lines assayed simultaneously) for HCT-116 cell lines isolated on the basis of CbA resistance in the presence of concentration series of indicated compounds. (B) Cell viability was measured by Alamar Blue assay (mean ± SD, n = 4, all cell lines assayed simultaneously) for HEK293FRT cells stably expressing Sec61α mutants in the presence of concentration series of indicated compounds. (C) Comparison of published NCI60 data for CbA,[3] AprA,[11] and IpoF.[33] The heat map was derived by plotting each GI50 value divided by the median GI50 for that compound. X indicates a cell line that was not tested. Closed arrowhead indicates cell lines with most notable differences across the three compounds. […]
(§3) A431, HEK293T, and HEK293FRT cells were cultured in DMEM supplemented with 10% FBS. […] Viability was estimated by the addition of Alamar Blue (Life Technologies) and measuring fluorescence after a further 4 h. […]

The subject of experiment [2] is HCT116 resistant line 100-1. In words: Cell viability, Alamar Blue, CbA-resistant line. The class given is cell-based, human. Particulars: 72 h, n = 4 (Figure 5A), read-out: HCT116 Resistant lines IC50 (100-1). The protocol: (§4) Figure 5 CbA mode of inhibition is specific compared to known Sec61 inhibitors. (A) Cell viability was measured by Alamar Blue assay (mean ± SD, n = 4, all cell lines assayed simultaneously) for HCT-116 cell lines isolated on the basis of CbA resistance in the presence of concentration series of indicated compounds. (B) Cell viability was measured by Alamar Blue assay (mean ± SD, n = 4, all cell lines assayed simultaneously) for HEK293FRT cells stably expressing Sec61α mutants in the presence of concentration series of indicated compounds. (C) Comparison of published NCI60 data for CbA,[3] AprA,[11] and IpoF.[33] The heat map was derived by plotting each GI50 value divided by the median GI50 for that compound. X indicates a cell line that was not tested. Closed arrowhead indicates cell lines with most notable differences across the three compounds. TEXT PRINTED IN THE PICTURE: (A) CbA: HCT116 Resistant lines IC50(nM): 24 (WT); HCT116 Resistant lines IC50(nM): 6500 (100-1); HCT116 Resistant lines IC50(nM): 7500 (100-2); HCT116 Resistant lines IC50(nM): 5800 (100-3); HCT116 Resistant lines IC50(nM): 7800 (100-4); HCT116 Resistant lines IC50(nM): 3800 (100-5) | (A) AprA: HCT116 Resistant lines IC50(nM): 80 (WT); HCT116 Resistant lines IC50(nM): >10000 (100-1); HCT116 Resistant lines IC50(nM): >10000 (100-2); HCT116 Resistant lines IC50(nM): >10000 (100-3); HCT116 Resistant lines IC50(nM): >10000 (100-4); HCT116 Resistant lines IC50(nM): >10000 (100-5) | (B) CbA: Sec61α engineered lines IC50(nM): 12 (WT); Sec61α engineered lines IC50(nM): 83 (R66I); Sec61α engineered lines IC50(nM): 20 (T86M); Sec61α engineered lines IC50(nM): 81 (S82P) | (B) AprA: Sec61α engineered lines IC50(nM): 24 (WT); Sec61α engineered lines IC50(nM): >10000 (R66I); Sec61α engineered lines IC50(nM): 2500 (T86M); Sec61α engineered lines IC50(nM): 4700 (S82P)
(§5) A431, HEK293T, and HEK293FRT cells were cultured in DMEM supplemented with 10% FBS. HCT-116 cells were cultured in McCoy’s 5A media supplemented with 10% FBS. U87-MG cells were cultured in Minimum Essential Media (MEM) with 10% FBS, L-glutamine (2 mM), and 1% penicillin and streptomycin. MDA-MB-231 cells were cultured in MEM with Earl’s salts plus 1% penicillin/streptomycin and 10% FBS. All cell lines were incubated at 37 °C under 5% CO2. The activity of synthetic coibamide and photoaffinity analogues was tested in MDA-MB-231 and A549 cells after 72 h by MTS assay. All other cell viability assays were performed by seeding PerkinElmer Viewplate-96 plates at a density of 2.5 × 10^3 cells per well. Cells were allowed 24 h to adhere and then treated with indicated concentrations of inhibitors or vehicle (0.1% DMSO) for a further 72 h. Viability was estimated by the addition of Alamar Blue (Life Technologies) and measuring fluorescence after a further 4 h. Pulse-labeling experiments were performed by seeding six-well plates with 5 × 10^5 cells per well and allowing 24 h for cells to adhere. Cells were washed twice with PBS, then exchanged into Met-Cys free media with indicated concentrations of inhibitors for 30 min. 100 μCi of PerkinElmer EXPRE^35S^35S Protein Labeling Mix was then added per well. Media wer collected, and the cells were harvested by scraping them into ice cold PBS after 30 min. Total protein was acquired by RIPA extraction from the cell pellet. Glycosylated protein was acquired by Concanavalin A purification, and secreted protein was acquired by TCA precipitation of the media. […]
(In general: Alamar Blue is a resazurin reagent that responds to reducing activity.)

In experiment [3] the test system is HCT116 resistant line 100-2. In words: Cell viability, Alamar Blue, CbA-resistant line. Particulars: 72 h, n = 4 (Figure 5A), read-out: HCT116 Resistant lines IC50 (100-2). The class given is cell-based, human. The method, then:
as §4, §5

For experiment [4], the system named is HCT116 resistant line 100-3. In words: Cell viability, Alamar Blue, CbA-resistant line. Particulars: 72 h, n = 4 (Figure 5A), read-out: HCT116 Resistant lines IC50 (100-3). The class given is cell-based, human. The method, then: as §4, §5
In experiment [5] the test system is HCT116 resistant line 100-4. Briefly: Cell viability, Alamar Blue, CbA-resistant line. As to conditions: 72 h, n = 4 (Figure 5A), read-out: HCT116 Resistant lines IC50 (100-4). The class given is cell-based, human. The method, then: as §4, §5
Experiment [6] deals with HCT116 resistant line 100-5. In words: Cell viability, Alamar Blue, CbA-resistant line. The class given is cell-based, human. As to conditions: 72 h, n = 4 (Figure 5A), read-out: HCT116 Resistant lines IC50 (100-5). The method, then: as §4, §5
The target of experiment [7] is HEK293FRT cells stably expressing Sec61α WT (Homo sapiens, UniProt P61619). Briefly: Cell viability, Alamar Blue, Sec61α engineered lines. The class given is cell-based. As to conditions: 72 h, n = 4 (Figure 5B). The method, then:
as §2, §3

For experiment [8], the system named is A549 human lung adenocarcinoma cells. As to conditions: 72 h.

Like-named read-outs stand apart in the source and are kept apart here. Bridge positions count the residues as written; N and C are the ends. Square brackets hold non-standard residues; d marks the D form. Peptide text beside a SMILES is read from it. * marks the point of attachment. NMe2Val = CC(C)[C@@H](C(=O)*)N(C)C; NMeI = CC[C@H](C)[C@H](NC)C(=O)O; NMeT = CN[C@H](C(=O)O)[C@@H](C)O; NMeL = CN[C@@H](CC(C)C)C(=O)O; dHiv = CC(C)[C@@H](O)C(=O)O; NMeS = CN[C@@H](CO)C(=O)O; dNMeA = CN[C@H](C)C(=O)O

Chain of HEK293FRT cells stably expressing Sec61α WT (P61619 whole entry): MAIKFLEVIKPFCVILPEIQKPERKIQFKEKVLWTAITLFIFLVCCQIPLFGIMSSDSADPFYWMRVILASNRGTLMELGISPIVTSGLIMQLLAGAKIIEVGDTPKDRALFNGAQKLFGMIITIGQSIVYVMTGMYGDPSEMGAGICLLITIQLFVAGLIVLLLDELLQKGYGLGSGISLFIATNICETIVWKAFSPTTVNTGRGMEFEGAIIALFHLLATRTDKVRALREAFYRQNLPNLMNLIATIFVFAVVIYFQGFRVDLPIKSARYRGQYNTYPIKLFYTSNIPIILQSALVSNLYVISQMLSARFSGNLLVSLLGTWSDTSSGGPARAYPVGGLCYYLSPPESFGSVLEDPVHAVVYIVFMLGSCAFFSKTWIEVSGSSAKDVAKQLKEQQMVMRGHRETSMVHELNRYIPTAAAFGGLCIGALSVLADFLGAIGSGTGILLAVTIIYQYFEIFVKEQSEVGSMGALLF

Usually IC50 stands for the concentration that gives 50% inhibition. Turning to `CC[C@H](C)[C@H]1C(=O)N[C@@H](C)C(=O)N(C)[C@@H](CC(C)C)C(=O)N[C@@H](Cc2ccc(OC)cc2)C(=O)N(C)[C@H](C)C(=O)O[C@H](C)[C@H](N(C)C(=O)[C@H](CC(C)C)N(C)C(=O)[C@H](COC)N(C)C(=O)[C@H](OC(=O)[C@H](C(C)C)N(C)C)C(C)C)C(=O)N(C)[C@@H](COC)C(=O)N1C` [CbA, Coibamide A] (NMe2Val-[dHiv][NMeS](Me)[NMeL][NMeT][NMeS](Me)[NMeI]A[NMeL]Y(Me)[dNMeA]; ester 4-C), the IC50 came to 1.6 nM in experiment [1]; 29.2 nM in the experiment on HCT116 cells (HCT116, 72 h, 0.1% DMSO (Figure 1D), read-out: IC50); 24 nM in the experiment on HCT116 cells (HCT116 WT, 72 h, mean ± SD, n = 4 (Figure 5A), read-out: HCT116 Resistant lines IC50 (WT)); 6500 nM in experiment [2]; 7500 nM in experiment [3]; 5800 nM in experiment [4]. Besides, the IC50 is 7800 nM in experiment [5], 3800 nM in experiment [6], 12 nM in experiment [7] and 2.1 ± 0.7 nM in [8].
